According to PMC9860869, “First Phytochemical Profiling and In-Vitro Antiprotozoal Activity of Essential Oil and Extract of Plagiochila porelloides” (Molecules, 2023):

Key:
[1] = tested on: Trypanosoma brucei brucei (bloodstream forms); experiment: In vitro test for antitrypanosomal activity; format: cell-based; conditions: Tbb bloodstream forms, pure compound (positive control), read-out: Antiprotozoal assay IC50 ± SD Tbb
Method: (§1) Trypanosoma brucei brucei (strain 427) bloodstream forms were cultured in vitro in HMI9 medium containing 10% heat-inactivated fetal bovine serum. Leishmania mexicana mexicana promastigotes (MHOM/BZ/84/BEL46) were cultivated in vitro in a semi-defined medium (SDM-79) supplemented with 15% heat-inactivated fetal bovine serum. The human normal fibroblast cell line, WI-38, was cultivated in vitro in DMEM medium containing 4 mM L-glutamine, 1 mM sodium pyruvate supplemented with 10% heat-inactivated fetal bovine serum and penicillin–streptomycin (100 UI/mL to 100 µg/mL). All cells were incubated in a humidified atmosphere with 5% CO2 at 37 °C except the Leishmania promastigotes which were incubated at 28 °C.
(§2) The in vitro test was performed as described previously. Pentamidine isethionate salt (a commercial antileishmanial drug) and suramine sodium salt (a commercial antitrypanosomal drug) were used as positive controls in all experiments with an initial concentration of 10 µg/mL. First, stock solutions of crude extracts and compounds were prepared in DMSO at 20 mg/mL (and 2 mg/mL for positive controls). The solutions were further diluted in medium to give 0.2 mg/mL stock solutions. Essential oil and extracts were tested in eight serial three-fold dilutions (final concentration range: 100–0.05 µg/mL) in 96-well microtiter plates. All tests were repeated three times in duplicate.

[2] = tested on: Leishmania mexicana mexicana promastigotes; experiment: In vitro test for antileishmanial activity; format: cell-based; conditions: Lmm promastigotes, pure compound (positive control), read-out: Antiprotozoal assay IC50 ± SD Lmm
Method: as §1, §2

[3] = Cytotoxicity assay on J774 cells; format: cell-based, murine; conditions: mouse, J774 macrophage-like cells, pure compound (positive control), read-out: Cytotoxicity IC50 ± SD J774
Method: (§3) The cytotoxicity of the essential oil and extracts on WI-38 and J774 cells was evaluated as previously described from the same stock solutions [45].

[4] = Cytotoxicity assay on WI38 cells; format: cell-based; conditions: human, WI-38 normal fibroblast cells, pure compound (positive control), read-out: Cytotoxicity IC50 ± SD WI38
Method: as §1, §3

Cc1ccc(C(=O)Nc2ccc(S(=O)(=O)O)c3cc(S(=O)(=O)O)cc(S(=O)(=O)O)c23)cc1NC(=O)c1cccc(NC(=O)Nc2cccc(C(=O)Nc3cc(C(=O)Nc4ccc(S(=O)(=O)O)c5cc(S(=O)(=O)O)cc(S(=O)(=O)O)c45)ccc3C)c2)c1 [Suramine]
IC50 [1]: 30 ± 4 nM

N=C(N)c1ccc(OCCCCCOc2ccc(C(=N)N)cc2)cc1 [Pentamidine]
IC50 [2]: 70 ± 4 nM

CC[C@@]1(O)C(=O)OCc2c1cc1n(c2=O)Cc2cc3ccccc3nc2-1 [Camptothecin]
IC50 [3]: 10 ± 1 nM | IC50 [4]: 31 ± 2 nM
